± gives the standard error.
Key:
621-103 (TSC2-rescued) = assay: relative viability vs DMSO; higher = less cytotoxic; conditions: serum: 10% FBS, 72 h
621-102 (TSC2-deficient) = assay: as above; conditions: serum: 10% FBS, 72 h
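Note: immortalized renal angiomyolipoma cells stably carrying empty vector or TSC2, dosed in 384-well plates in DMEM, viability normalized to vehicle-treated wells within each plate.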

SMILES | relative viability (621-103 (TSC2-rescued); 0.0001 µM) [%] | relative viability (621-103 (TSC2-rescued); 0.001 µM) [%] | relative viability (621-103 (TSC2-rescued); 0.01 µM) [%] | relative viability (621-103 (TSC2-rescued); 0.1 µM) [%] | relative viability (621-103 (TSC2-rescued); 1 µM) [%] | relative viability (621-103 (TSC2-rescued); 10 µM) [%] | relative viability (621-102 (TSC2-deficient); 0.0001 µM) [%] | relative viability (621-102 (TSC2-deficient); 0.001 µM) [%] | relative viability (621-102 (TSC2-deficient); 0.01 µM) [%] | relative viability (621-102 (TSC2-deficient); 0.1 µM) [%] | relative viability (621-102 (TSC2-deficient); 1 µM) [%] | relative viability (621-102 (TSC2-deficient); 10 µM) [%]
C[C@@H](Oc1cc(-n2cnc3ccc(CN4CCN(C)CC4)cc32)sc1C(N)=O)c1ccccc1C(F)(F)F | 100 ± 1.7 | 71.9 ± 4.3 | 60.2 ± 0.98 | 48.49 ± 0.29 | 40.7 ± 0.62 | 9.95 ± 0.89 | 97.01 ± 0.82 | 88.1 ± 1.3 | 64.5 ± 3.1 | 45.3 ± 0.63 | 40.7 ± 3.1 | 27.1 ± 3.8
Nc1nccc(Oc2ccc(NC(=O)c3c[nH]cc(-c4ccc(F)cc4)c3=O)cc2F)c1Cl | 90.9 ± 6.6 | 94.6 ± 4.2 | 102 ± 1.6 | 104 ± 2 | 98.9 ± 1.2 | 98.15 ± 0.84 | 94 ± 10 | 118 ± 2.6 | 111 ± 3.1 | 103 ± 2.8 | 102 ± 2.2 | 94.5 ± 1.3
CCCCCCOC(=O)NC(=N)c1ccc(NCc2nc3cc(C(=O)N(CCC(=O)OCC)c4ccccn4)ccc3n2C)cc1 [BIBR-1048] | 82.2 ± 13 | 80.5 ± 6.2 | 88.7 ± 4.1 | 92.9 ± 8.5 | 72.9 ± 5.4 | 69.4 ± 1.5 | 78.58 ± 0.35 | 83.8 ± 4.3 | 90.2 ± 3 | 96.8 ± 4.4 | 107 ± 6.2 | 87.6 ± 3
CC[C@H]1OC(=O)[C@H](C)[C@@H](O[C@H]2C[C@@](C)(OC)[C@@H](O)[C@H](C)O2)[C@H](C)[C@@H](O[C@@H]2O[C@H](C)C[C@H](N(C)C)[C@H]2O)[C@](C)(OC)C[C@@H](C)C(=O)[C@H](C)[C@@H](O)[C@]1(C)O [Clarithromycin (Biaxin,Klacid)] | 106 ± 2 | 91.4 ± 2.9 | 104 ± 1.4 | 102 ± 1.1 | 102 ± 3.7 | 93.43 ± 0.4 | 118 ± 2 | 113 ± 2.8 | 108 ± 0.65 | 115 ± 2.5 | 105 ± 0.45 | 98.8 ± 1.5
CN(C)C(=O)[C@H](O)[C@H](Cc1ccccc1)NC(=O)c1cc2cc(Cl)ccc2[nH]1 | 112.8 ± 0.78 | 108 ± 2.3 | 108.2 ± 0.39 | 106 ± 1.7 | 106 ± 1.5 | 104 ± 1.8 | 103 ± 1.9 | 94.3 ± 1 | 111 ± 2.4 | 110 ± 5.4 | 89.6 ± 3.6 | 111.8 ± 0.78
CC(/C=C/C(=O)NO)=C\[C@@H](C)C(=O)c1ccc(N(C)C)cc1 [Trichostatin A] | 100.8 ± 0.21 | 101 ± 1.4 | 98.31 ± 0.47 | 99.71 ± 0.22 | 96.9 ± 1.4 | 44.8 ± 2.1 | 113.6 ± 0.35 | 117 ± 1.7 | 117.6 ± 0.42 | 104.3 ± 0.83 | 110 ± 1.2 | 74.9 ± 3.8
C[C@@H]1CCO[C@H]2Cn3cc(C(=O)NCc4ccc(F)cc4F)c(=O)c(O)c3C(=O)N12 | 111.7 ± 0.85 | 109 ± 5.8 | 111 ± 2.1 | 117 ± 2.9 | 112 ± 4 | 109 ± 3.2 | 102 ± 1.5 | 104 ± 2.7 | 102.2 ± 0.83 | 106 ± 2.5 | 93.7 ± 9.2 | 108 ± 3.5
OC(CN1CCN(c2cccc(Cl)c2)CC1)C(c1ccccc1)c1ccccc1 (stereo not drawn) | 83.9 ± 10 | 85.7 ± 8.3 | 95.1 ± 7.2 | 98.58 ± 0.47 | 83.3 ± 4.9 | 79.1 ± 4.4 | 102 ± 4.7 | 93.4 ± 2.8 | 104 ± 2.5 | 95.9 ± 2.9 | 102 ± 2.5 | 89.25 ± 0.44
S=C(NCc1ccc2c(c1)OCO2)N1CCN(c2ncnc3c2oc2ccccc23)CC1 [MP-470] | 88.5 ± 5.1 | 104 ± 1.4 | 103.8 ± 0.57 | 106 ± 1.4 | 105.95 ± 0.02 | 112 ± 3.2 | 105 ± 1.2 | 116 ± 4.3 | 112 ± 2.3 | 125 ± 1.3 | 118 ± 4.8 | 116.2 ± 0.7
Cn1c(CNc2ccc(C(=N)N)cc2)nc2cc(C(=O)N(CCC(=O)O)c3ccccn3)ccc21 [BIBR 953] | 78 ± 9 | 76.5 ± 10 | 82.8 ± 11 | 94.1 ± 7.3 | 88.3 ± 6.7 | 91.3 ± 4.6 | 64.4 ± 4.5 | 77.2 ± 5.6 | 90.2 ± 2.2 | 88.6 ± 4.5 | 82.7 ± 9.1 | 81 ± 4.6
COc1cc(OC)c(/C=C/S(=O)(=O)Cc2ccc(OC)c(NCC(=O)O)c2)c(OC)c1 | 100.5 ± 0.4 | 99 ± 1.7 | 98.7 ± 1.2 | 97.9 ± 1.8 | 47.98 ± 0.052 | 24.1 ± 0.81 | 109 ± 2.7 | 109 ± 2.2 | 103.2 ± 0.43 | 97.9 ± 1.3 | 42 ± 1.4 | 30.9 ± 0.31
CC1=C(C(=O)Nc2cc3cn[nH]c3cc2F)C(c2ccc(C(F)(F)F)cc2)CC(=O)N1 (stereo not drawn) | 99 ± 0.99 | 98.74 ± 0.16 | 101 ± 3.5 | 101.2 ± 0.43 | 99.79 ± 0.91 | 96.4 ± 2.7 | 121 ± 2.4 | 104 ± 2.5 | 104.73 ± 0.024 | 108 ± 2 | 106 ± 2.2 | 85.826 ± 0.053
CCOc1cc2ncc(C#N)c(Nc3ccc(F)c(Cl)c3)c2cc1NC(=O)/C=C/CN(C)C [Pelitinib] | 102 ± 1.2 | 101 ± 1.5 | 100.5 ± 0.68 | 98.7 ± 3 | 65.38 ± 0.34 | 19.6 ± 1.3 | 104 ± 2.2 | 107.2 ± 0.9 | 121.9 ± 0.77 | 107 ± 4 | 80.44 ± 0.46 | 25.2 ± 3.6
Oc1c2ccccc2c2c3c(cccc13)N=N2 | 100.6 ± 0.42 | 101 ± 1.9 | 101.1 ± 0.35 | 100.1 ± 0.67 | 98.2 ± 1.6 | 95.2 ± 2.7 | 104.7 ± 0.13 | 103 ± 4.5 | 105 ± 1.1 | 103 ± 1.3 | 102 ± 4 | 83.3 ± 2.2
CC(=O)Nc1ccccc1 [Acetanilide] | 104 ± 1.9 | 102 ± 4.6 | 106.2 ± 0.32 | 101 ± 4.2 | 103 ± 2.6 | 91.3 ± 1.3 | 87.9 ± 1.9 | 111 ± 0.29 | 109 ± 2.3 | 92 ± 3 | 113 ± 3.1 | 104 ± 1.7
Nc1nc(F)nc2c1ncn2[C@@H]1O[C@H](CO)[C@@H](O)[C@@H]1O [Fludarabine (Fludara)] | 108 ± 4.5 | 92.6 ± 8.1 | 102 ± 1.6 | 102.9 ± 1 | 102.8 ± 0.34 | 86.6 ± 8 | 101 ± 3.9 | 92 ± 1.4 | 106 ± 1.3 | 100.6 ± 0.41 | 94.7 ± 5.7 | 86.22 ± 0.37
Nc1ncnc2c1c(-c1cnc3[nH]ccc3c1)nn2C1CCCC1 [PP-121] | 104.1 ± 0.76 | 103 ± 2.2 | 99.74 ± 0.75 | 86.8 ± 3.6 | 41.5 ± 1.9 | 10.2 ± 0.22 | 102 ± 4.8 | 97.7 ± 2.4 | 89.2 ± 0.2 | 85 ± 1.9 | 56.4 ± 0.66 | 5.4 ± 0.81
CC(C)c1nc(CN(C)C(=O)N[C@H](C(=O)N[C@@H](Cc2ccccc2)C[C@H](O)[C@H](Cc2ccccc2)NC(=O)OCc2cncs2)C(C)C)cs1 [Ritonavir] | 99.5 ± 0.28 | 99.3 ± 1.5 | 98.8 ± 0.17 | 97.77 ± 0.48 | 97.6 ± 2.4 | 98.28 ± 0.37 | 106.1 ± 0.46 | 98.8 ± 4.8 | 105 ± 4.1 | 104 ± 1.4 | 100 ± 1.4 | 102 ± 2.6
C=CC(=O)Nc1cccc(Oc2nc(Nc3ccc(N4CCN(C)CC4)cc3OC)ncc2Cl)c1 [WZ4002] | 100.2 ± 0.22 | 101 ± 1.6 | 100.1 ± 0.83 | 101.6 ± 0.99 | 101 ± 2.2 | 32.5 ± 1.5 | 110 ± 1.7 | 100 ± 6.1 | 104 ± 4.2 | 101 ± 3.6 | 99 ± 2 | 51.6 ± 2
